Measured values as given in patent US20090069300A1, “ISOQUINOLINYL AND ISOINDOLINYL DERIVATIVES AS HISTAMINE-3 ANTAGONISTS” (Wyeth, priority 2007, published 2009).
Counter-ions that a name gives are not always drawn. Like-named read-outs stand apart in the source and are kept apart here.

Biological target: T1, Human Histamine H3 Receptor (Homo sapiens, UniProt Q9Y5N1)
T1 construct: expressed in transfected cells; host or cells: HEK293T (stably transfected; membranes prepared from the cells)
Assay: Methyl histamine binding in human histamine H3 receptor cell line
Experimental: Evaluation of Methyl Histamine Binding in Human Histamine H3 Receptor Cell Line
The affinity of test compounds for the histamine 3 (H3) receptor is evaluated in the following manner. […] Cells are scraped from the plate, transferred to centrifuge tubes, washed one time in PBS by centrifugation in a Sorvall RT7 Plus centrifuge (2000 rpm 10 minutes, 4° C.). The resulting pellets are stored at −80° C. until ready for use. Cells are re-suspended in buffer (50 mM Tris pH=7.5) and placed in a Dounce homogenizer, douncing ten times to homogenize cells. The homogenate is spun down by centrifugation (Sorvall RT7 Plus, 1800 rpm 10 minutes, 4° C.). The supernatant is placed in a Corex tube and spun down by centrifugation (Sorvall RC 5c Plus, 17,000 rpm 20 minutes, 4° C.). The pellet is resuspended in buffer (50 mM Tris, pH 7.5). Protein concentration (ug/ul) is determined using the Micro-BCA Protein Determination. The binding assay is set up in a 96 well microtiter plate in a total volume of 250 uL. Non-specific binding is determined in the presence of 10 uM clobenpropit. The final radioligand concentration is 1 nM. The test compound is serially diluted using the Beckman Biomek2000 to a final approximate range of 100 uM to 100 pM. Membranes are suspended in buffer, homogenized in 2 bursts of ten seconds using a Vitris mechanical homogenizer set at power setting 5. Ten μg of membranes are added to each well. Following a one hour incubation at 30° C., the reaction is terminated by the addition of ice cold buffer and rapid filtration with a Packard Filtermate Harvester through a GF/B filter pre-soaked with 1% PEI for one hour. The plate is dried for one hour at 37° C. and 60 μL Microscint Scintillant is added to each well. The CPM per well is measured on a Packard Top Count NXT. Ki values are determined in nM. […] CPM values are expressed as % specific binding and plotted vs compound concentration. A curve is fitted using a four-parameter logistic fit and the IC50 value is determined. The Ki is calculated from this using the Cheng-Prusoff equation: […]=IC50/1+(L/Kd) where L=concentration of free radioligand used in the assay, and Kd is the dissociation constant of the radioligand for the receptor. L is determined for each experiment by counting an aliquot of the diluted radioligand (corresponding to that added to each well) and the Kd has previously been determined under identical conditions for this cell line/radioligand.

T1 sequence (Q9Y5N1 whole entry): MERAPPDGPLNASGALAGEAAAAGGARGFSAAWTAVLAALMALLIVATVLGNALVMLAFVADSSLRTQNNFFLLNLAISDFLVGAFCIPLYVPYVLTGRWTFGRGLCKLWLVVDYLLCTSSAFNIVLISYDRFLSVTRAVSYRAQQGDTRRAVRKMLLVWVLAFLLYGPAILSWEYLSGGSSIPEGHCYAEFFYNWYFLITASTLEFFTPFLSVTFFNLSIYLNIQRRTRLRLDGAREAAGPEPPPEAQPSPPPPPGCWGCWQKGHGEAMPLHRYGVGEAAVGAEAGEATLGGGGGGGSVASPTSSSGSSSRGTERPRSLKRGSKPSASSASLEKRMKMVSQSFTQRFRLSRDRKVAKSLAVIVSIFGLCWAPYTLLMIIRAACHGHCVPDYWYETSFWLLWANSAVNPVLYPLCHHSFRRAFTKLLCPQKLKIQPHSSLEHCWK

**Q.** With NC(=O)c1ccc(-c2ccc3c(c2)CCN(CCN2CCCC2)C3)cc1 [Example 180, 4-[2-(2-pyrrolidin-1-ylethyl)-1,2,3,4-tetrahydroisoquinolin-6-yl]benzamide] as the compound, how does the Ki (read-out: H3 Binding Ki) read?
**A.** The Ki was 10.1 to 25 nM.

**Q.** O=C(c1ccc(-c2ccc3c(c2)CCN(CCN2CCCC2)C3=O)cc1)N1CCC1 [Example 64, 6-[4-(azetidin-1-ylcarbonyl)phenyl]-2-(2-pyrrolidin-1-ylethyl)-3,4-dihydroisoquinolin-1(2H)-one] was tested. Which Ki (read-out: H3 Binding Ki) did it give?
**A.** The Ki was less than 10 nM.

**Q.** For O=C(NCC1CC1)c1ccc(-c2ccc3c(c2)CCN(CCN2CCCC2)C3=O)cc1 [Example 60, N-(cyclopropylmethyl)-4-[1-oxo-2-(2-pyrrolidin-1-ylethyl)-1,2,3,4-tetrahydroiso-quinolin-6-yl]benzamide], which Ki (read-out: H3 Binding Ki) is on record?
**A.** The Ki was less than 10 nM.

**Q.** How did the Ki (read-out: H3 Binding Ki) turn out when O=C1c2ccc(-c3ccc(F)cc3)cc2CCN1CCN1CCCC1 [Example 9, 6-(4-fluorophenyl)-2-(2-pyrrolidin-1-ylethyl)-3,4-dihydroiso-quinolin-1(2H)-one Hydrochloride] was run?
**A.** The Ki was 10.1 to 25 nM.

**Q.** CCOCCNC(=O)c1ccc(-c2ccc3c(c2)CCN(CCN2CCCC2)C3=O)cc1 [Example 72, N-(2-ethoxyethyl)-4-[1-oxo-2-(2-pyrrolidin-1-ylethyl)-1,2,3,4-tetrahydroisoquinolin-6-yl]benzamide] was tested. Which Ki (read-out: H3 Binding Ki) did it give?
**A.** Its Ki is 10.1 to 25 nM.

**Q.** How did the Ki (read-out: H3 Binding Ki) turn out when C[C@@H]1CCCN1CCN1CCc2cc(C(=O)N3CCc4ccccc4C3)ccc2C1=O [Example 150, 6-(3,4-dihydroisoquinolin-2(1H)-ylcarbonyl)-2-{2-[(2R)-2-methylpyrrolidin-1-yl]ethyl}-3,4-dihydroisoquinolin-1(2H)-one] was run?
**A.** Its Ki is less than 10 nM.

**Q.** Which Ki (read-out: H3 Binding Ki) does the source give for N#Cc1cccc(-c2ccc3c(c2)CCN(CCN2CCCC2)C3=O)c1 [Example 15, 3-[1-oxo-2-(2-pyrrolidin-1-ylethyl)-1,2,3,4-tetrahydroisoquinolin-6-yl]benzonitrile] here?
**A.** The Ki was less than 10 nM.

**Q.** How did the Ki (read-out: H3 Binding Ki) turn out when C[C@@H]1CCCN1CCN1CCc2c(cccc2-c2cccc(C#N)c2)C1=O [Example 27, 3-(2-{2-[(2R)-2-methylpyrrolidin-1-yl]ethyl}-1-oxo-1,2,3,4-tetrahydroisoquinolin-5-yl)benzonitrile] was run?
**A.** Its Ki is 50.1 to 100 nM.

**Q.** N#Cc1ccc(-c2ccc3c(c2)CCN(CCCN2CCCC2)C3=O)cc1 [Example 32, 4-[1-oxo-2-(3-pyrrolidin-1-ylpropyl)-1,2,3,4-tetrahydroisoquinolin-6-yl]benzonitrile] was tested. Which Ki (read-out: H3 Binding Ki) did it give?
**A.** Its Ki is less than 10 nM.

**Q.** How did the Ki (read-out: H3 Binding Ki) turn out when O=C(c1ccc(Oc2ccc3c(c2)CCN(CCN2CCCC2)C3=O)cc1)N1CCCC1 [Example 98, 6-[4-(pyrrolidin-1-ylcarbonyl)phenoxy]-2-(2-pyrrolidin-1-ylethyl)-3,4-dihydroiso-quinolin-1(2H)-one] was run?
**A.** The Ki was less than 10 nM.

**Q.** O=C1c2ccc(-c3ccncc3)cc2CCN1CCN1CCCC1 [Example 34, 6-pyridin-4-yl-2-(2-pyrrolidin-1-ylethyl)-3,4-dihydroisoquinolin-1(2)-one Hydrochloride] was tested. Which Ki (read-out: H3 Binding Ki) did it give?
**A.** The Ki was less than 10 nM.

**Q.** How did the Ki (read-out: H3 Binding Ki) turn out when O=C(c1ccc(-c2ccc3c(c2)CCN(CCN2CCCC2)C3=O)cc1)N1CCOCC1 [Example 122, 6-[4-(morpholin-4-ylcarbonyl)phenyl]-2-(2-pyrrolidin-1-ylethyl)-3,4-dihydroisoquinolin-1(2H)-one] was run?
**A.** Its Ki is less than 10 nM.

**Q.** With CC(C)NC(=O)c1ccc(-c2ccc3c(c2)CCN(CCN2CCCC2)C3=O)cc1 [Example 61, N-isopropyl-4-[1-oxo-2-(2-pyrrolidin-1-ylethyl)-1,2,3,4-tetrahydroisoquinolin-6-yl]benzamide] as the compound, how does the Ki (read-out: H3 Binding Ki) read?
**A.** The Ki was less than 10 nM.

**Q.** CON(C)C(=O)c1ccc(-c2ccc3c(c2)CCN(CCN2CCCC2)C3=O)cc1 [Example 102, N-methoxy-N-methyl-4-(1-oxo-2-(2-(pyrrolidin-1-yl)ethyl)-1,2,3,4-tetrahydroisoqui-nolin-6-yl)benzamide] was tested. Which Ki (read-out: H3 Binding Ki) did it give?
**A.** Its Ki is less than 10 nM.

**Q.** How did the Ki (read-out: H3 Binding Ki) turn out when O=C1c2ccc(-c3ccc4c(c3)OCO4)cc2CCN1CCN1CCCC1 [Example 21, 6-(1,3-benzodioxol-5-yl)-2-(2-pyrrolidin-1-ylethyl)-3,4-dihydroisoquinolin-1(2H)-one] was run?
**A.** Its Ki is 10.1 to 25 nM.

**Q.** O=C(NCCOc1ccccc1)c1ccc(-c2ccc3c(c2)CCN(CCN2CCCC2)C3=O)cc1 [Example 71, 4-[1-oxo-2-(2-pyrrolidin-1-ylethyl)-1,2,3,4-tetrahydroisoquinolin-6-yl]-N-(2-phenoxyethyl)-benzamide] was tested. Which Ki (read-out: H3 Binding Ki) did it give?
**A.** The Ki was 50.1 to 100 nM.

**Q.** O=C(c1ccc(-c2ccc3c(c2)CCN(CCN2CCCC2)C3=O)cc1Cl)N1CCCC1 [Example 134, 6-[3-chloro-4-(pyrrolidin-1-ylcarbonyl)phenyl]-2-(2-pyrrolidin-1-ylethyl)-3,4-dihydroisoquinolin-1(2H)-one] was tested. Which Ki (read-out: H3 Binding Ki) did it give?
**A.** The Ki was less than 10 nM.

**Q.** With NC(=O)c1ccc(-c2ccc3c(c2)CCN(CCN2CCCC2)C3=O)cc1 [Example 67, 4-[1-oxo-2-(2-pyrrolidin-1-ylethyl)-1,2,3,4-tetrahydroisoquinolin-6-yl]benzamide] as the compound, how does the Ki (read-out: H3 Binding Ki) read?
**A.** Its Ki is less than 10 nM.

**Q.** With O=C1c2ccc(-c3cccc(F)c3)cc2CCN1CCN1CCCC1 [Example 18, 6-(3-fluorophenyl)-2-(2-pyrrolidin-1-ylethyl)-3,4-dihydroisoquinolin-1(2H)-one] as the compound, how does the Ki (read-out: H3 Binding Ki) read?
**A.** The Ki was 10.1 to 25 nM.

**Q.** For C[C@H]1CCCN1CCN1CCc2cc(-c3ccc(F)cc3)ccc2C1=O [Example 39, 6-(4-fluorophenyl)-2-{2-[(2S)-2-methylpyrrolidin-1-yl]ethyl}-3,4-dihydroiso-quinolin-1(2H)-one hydrochloride], which Ki (read-out: H3 Binding Ki) is on record?
**A.** The Ki was 10.1 to 25 nM.

**Q.** For O=C(NCCCl)c1ccc(-c2ccc3c(c2)CCN(CCN2CCCC2)C3=O)cc1 [Example 123, N-(2-chloroethyl)-4-[1-oxo-2-(2-pyrrolidin-1-ylethyl)-1,2,3,4-tetrahydroisoquinolin-6-yl]benzamide], which Ki is on record?
**A.** Its Ki is less than 10 nM.

**Q.** For C[C@@H]1CCCN1C(=O)c1ccc(-c2ccc3c(c2)CCN(CCN2CCCC2)C3)cc1 [Example 187], which Ki (read-out: H3 Binding Ki) is on record?
**A.** The Ki was 10.1 to 25 nM.

**Q.** Which Ki (read-out: H3 Binding Ki) does the source give for O=C1c2ccc(-c3cccc(OC(F)(F)F)c3)cc2CCN1CCN1CCCC1 [Example 13, 2-(2-pyrrolidin-1-ylethyl)-6-[3-(trifluoromethoxy)phenyl]-3,4-dihydroisoquinolin-1(2H)-one] here?
**A.** The Ki was 25.1 to 50 nM.

**Q.** Which Ki (read-out: H3 Binding Ki) does the source give for C[C@@H]1CCCN1CCN1CCc2ccc(-c3ccc(C#N)cc3)cc2C1=O [Example 26, 4-(2-{2-[(2R)-2-methylpyrrolidin-1-yl]ethyl}-1-oxo-1,2,3,4-tetrahydroisoquinolin-7-yl)benzonitrile] here?
**A.** Its Ki is less than 10 nM.

**Q.** CNC(=O)c1ccc(-c2ccc3c(c2)CCN(CCN2CCCC2)C3)cc1 [Example 181, N-methyl-4-[2-(2-pyrrolidin-1-ylethyl)-1,2,3,4-tetrahydroisoquinolin-6-yl]benzamide] was tested. Which Ki (read-out: H3 Binding Ki) did it give?
**A.** The Ki was less than 10 nM.

**Q.** For C[C@@H]1CCCN1CCN1CCc2cc(-c3ccc4c(c3)CCNC4=O)ccc2C1=O [Example 157, (R)-2-(2-(2-methylpyrrolidin-1-yl)ethyl)-3,3′,4,4′-tetrahydro-6,6′-biisoquinoline-1,1′(2H,2′H-dione hydrochloride], which Ki (read-out: H3 Binding Ki) is on record?
**A.** Its Ki is less than 10 nM.

**Q.** N#Cc1ccc(Oc2ccc3c(c2)CCN(CCN2CCCC2)C3=O)cn1 [Example 52, 5-{[1-oxo-2-(2-pyrrolidin-1-ylethyl)-1,2,3,4-tetrahydroisoquinolin-6-yl]oxy}pyridine-2-carbonitrile] was tested. Which Ki (read-out: H3 Binding Ki) did it give?
**A.** The Ki was less than 10 nM.

**Q.** N#Cc1ccc(-c2ccc3c(c2)CCN(CCCN2CCCCC2)C3=O)cc1 [Example 45, 4-[1-oxo-2-(3-piperidin-1-ylpropyl)-1,2,3,4-tetrahydroisoquinolin-6-yl]benzonitrile hydrochloride] was tested. Which Ki (read-out: H3 Binding Ki) did it give?
**A.** The Ki was 10.1 to 25 nM.

**Q.** Which Ki (read-out: H3 Binding Ki) does the source give for O=C1c2ccc(-c3ccc(F)cc3)cc2CCN1CCN1CCCCC1 [Example 43, 6-(4-fluorophenyl)-2-(2-piperidin-1-ylethyl)-3,4-dihydroiso-quinolin-1(2H)-one hydrochloride] here?
**A.** Its Ki is less than 10 nM.

**Q.** C[C@H]1CCCN1C(=O)c1ccc(-c2ccc3c(c2)CCN(CCN2CCCC2)C3=O)cc1 [Example 81, 6-(4-{[(2S)-2-methylpyrrolidin-1-yl]carbonyl}phenyl)-2-(2-pyrrolidin-1-ylethyl)-3,4-dihydroisoquinolin-1(2H)-one] was tested. Which Ki (read-out: H3 Binding Ki) did it give?
**A.** Its Ki is less than 10 nM.

**Q.** O=C(c1ccc(-c2ccc3c(c2)CCN(CCN2CCCC2)C3)cc1)N1CCCCC1 [Example 185, 6-[4-(piperidin-1-ylcarbonyl)phenyl]-2-(2-pyrrolidin-1-ylethyl)-1,2,3,4-tetrahydroisoquinoline] was tested. Which Ki (read-out: H3 Binding Ki) did it give?
**A.** The Ki was 10.1 to 25 nM.

**Q.** With C[C@@H]1CCCN1CCN1CCc2cc(C(=O)NC3CCC3)ccc2C1=O [Example 145, N-cyclobutyl-2-{2-[(2R)-2-methylpyrrolidin-1-yl]ethyl}-1-oxo-1,2,3,4-tetrahydroisoquinoline-6-carboxamide] as the compound, how does the Ki (read-out: H3 Binding Ki) read?
**A.** Its Ki is less than 10 nM.

**Q.** O=C1c2ccc(-c3ccc(F)cc3F)cc2CCN1CCN1CCCC1 [Example 11, 6-(2,4-difluorophenyl)-2-(2-pyrrolidin-1-ylethyl)-3,4-dihydroisoquinolin-1(2H)-one] was tested. Which Ki (read-out: H3 Binding Ki) did it give?
**A.** Its Ki is less than 10 nM.
